How the values were obtained:
[1] = biological target: T1, Tyrosine-protein kinase JAK3 (Homo sapiens, UniProt P52333); test: Inhibition of JAK3 (unknown origin) using poly(Glu)4Tyr substrate and [gamma-33P]-ATP incubated for 20 mins by Top-count assay
T1 sequence (P52333 whole entry): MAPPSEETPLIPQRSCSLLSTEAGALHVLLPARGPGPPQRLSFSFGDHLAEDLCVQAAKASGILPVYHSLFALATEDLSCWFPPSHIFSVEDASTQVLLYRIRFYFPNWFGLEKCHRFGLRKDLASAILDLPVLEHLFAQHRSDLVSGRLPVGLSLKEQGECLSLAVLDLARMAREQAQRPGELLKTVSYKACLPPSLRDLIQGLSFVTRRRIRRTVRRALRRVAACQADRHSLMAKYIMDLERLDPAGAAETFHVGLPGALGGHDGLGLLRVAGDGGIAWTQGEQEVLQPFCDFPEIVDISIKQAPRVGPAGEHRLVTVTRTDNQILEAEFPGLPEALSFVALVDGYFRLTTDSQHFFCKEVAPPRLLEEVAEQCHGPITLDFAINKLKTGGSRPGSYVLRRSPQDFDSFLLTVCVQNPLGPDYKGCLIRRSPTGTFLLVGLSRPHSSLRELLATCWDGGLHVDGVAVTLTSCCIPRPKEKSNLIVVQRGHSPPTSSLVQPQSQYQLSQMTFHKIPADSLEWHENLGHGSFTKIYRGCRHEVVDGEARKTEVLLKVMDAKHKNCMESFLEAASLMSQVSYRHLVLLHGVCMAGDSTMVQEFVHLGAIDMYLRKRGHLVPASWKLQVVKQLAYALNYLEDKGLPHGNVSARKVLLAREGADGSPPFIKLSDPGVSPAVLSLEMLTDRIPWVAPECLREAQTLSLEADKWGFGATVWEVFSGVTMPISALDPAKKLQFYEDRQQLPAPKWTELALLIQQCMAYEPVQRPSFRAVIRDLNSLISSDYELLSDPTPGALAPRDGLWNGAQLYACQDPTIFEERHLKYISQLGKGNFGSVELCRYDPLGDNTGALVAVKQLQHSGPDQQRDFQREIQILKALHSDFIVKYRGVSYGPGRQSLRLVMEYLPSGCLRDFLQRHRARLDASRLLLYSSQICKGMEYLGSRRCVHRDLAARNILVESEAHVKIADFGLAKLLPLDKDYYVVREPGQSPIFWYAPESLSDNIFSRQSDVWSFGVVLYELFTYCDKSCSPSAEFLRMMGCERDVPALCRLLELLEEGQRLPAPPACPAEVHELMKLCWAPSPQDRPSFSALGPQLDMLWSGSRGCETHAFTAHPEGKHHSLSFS

[2] = biological target: Aurora kinase B (Homo sapiens, UniProt Q96GD4); test: Inhibition of Aurora-1 (unknown origin) incubated for 10 mins using Kemptide substrate and [gamma-33P]-ATP measured after 3 hrs by liquid scintillation counting based radiometric assay
[3] = biological target: Tyrosine-protein kinase JAK2 (Homo sapiens, UniProt O60674); test: Inhibition of JAK2 (unknown origin) using poly(Glu)4Tyr substrate and [gamma-33P]-ATP incubated for 20 mins by Top-count assay
[4] = biological target: T2, Aurora kinase A (Homo sapiens, UniProt O14965); test: Inhibition of Aurora-2 (unknown origin) pre-incubated with substrate for 10 mins before enzyme addition and measured after 10 mins post enzyme addition using Kemptide substrate by pyruvate kinase and LDH based standard coupled enzyme assay
T2 sequence (O14965 whole entry): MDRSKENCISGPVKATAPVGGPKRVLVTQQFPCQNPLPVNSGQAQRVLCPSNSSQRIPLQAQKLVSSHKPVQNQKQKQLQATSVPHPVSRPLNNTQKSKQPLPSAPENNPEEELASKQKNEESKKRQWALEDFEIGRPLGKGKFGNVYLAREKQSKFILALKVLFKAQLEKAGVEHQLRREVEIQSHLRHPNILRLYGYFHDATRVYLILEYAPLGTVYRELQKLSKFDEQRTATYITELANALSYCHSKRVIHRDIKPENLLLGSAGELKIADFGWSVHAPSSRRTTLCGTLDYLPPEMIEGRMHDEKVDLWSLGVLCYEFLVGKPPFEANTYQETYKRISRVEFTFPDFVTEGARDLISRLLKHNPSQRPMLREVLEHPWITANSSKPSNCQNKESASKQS

Chain of Tyrosine-protein kinase JAK2 (O60674 whole entry): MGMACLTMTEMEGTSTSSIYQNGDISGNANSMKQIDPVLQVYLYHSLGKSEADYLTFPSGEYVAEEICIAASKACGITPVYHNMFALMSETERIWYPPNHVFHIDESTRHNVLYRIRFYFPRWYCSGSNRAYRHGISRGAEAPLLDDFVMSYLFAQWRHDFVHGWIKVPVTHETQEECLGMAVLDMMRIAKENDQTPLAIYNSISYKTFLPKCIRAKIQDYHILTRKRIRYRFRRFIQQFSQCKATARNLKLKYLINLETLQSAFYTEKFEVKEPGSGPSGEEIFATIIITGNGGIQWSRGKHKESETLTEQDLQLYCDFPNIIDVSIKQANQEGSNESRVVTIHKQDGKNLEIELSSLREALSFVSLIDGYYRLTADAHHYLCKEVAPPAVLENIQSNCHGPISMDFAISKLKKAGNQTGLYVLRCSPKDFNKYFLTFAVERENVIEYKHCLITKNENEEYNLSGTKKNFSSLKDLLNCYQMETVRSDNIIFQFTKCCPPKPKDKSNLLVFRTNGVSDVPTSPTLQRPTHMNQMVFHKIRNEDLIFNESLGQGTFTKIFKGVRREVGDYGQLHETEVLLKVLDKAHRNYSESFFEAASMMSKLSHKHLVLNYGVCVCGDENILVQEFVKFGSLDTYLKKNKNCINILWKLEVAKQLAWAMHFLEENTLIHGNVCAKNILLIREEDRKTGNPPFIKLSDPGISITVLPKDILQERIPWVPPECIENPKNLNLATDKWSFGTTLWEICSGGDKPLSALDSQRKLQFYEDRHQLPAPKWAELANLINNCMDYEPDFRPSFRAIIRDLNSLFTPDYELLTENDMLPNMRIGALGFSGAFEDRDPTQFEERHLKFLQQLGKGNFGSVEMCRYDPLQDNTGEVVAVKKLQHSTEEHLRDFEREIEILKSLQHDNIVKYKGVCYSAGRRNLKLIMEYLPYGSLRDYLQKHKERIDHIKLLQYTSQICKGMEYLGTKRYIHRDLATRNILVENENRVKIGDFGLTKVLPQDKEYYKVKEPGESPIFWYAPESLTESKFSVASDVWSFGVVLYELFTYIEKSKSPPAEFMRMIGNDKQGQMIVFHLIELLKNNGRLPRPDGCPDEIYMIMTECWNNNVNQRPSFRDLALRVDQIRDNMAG
Chain of Aurora kinase B (Q96GD4 whole entry): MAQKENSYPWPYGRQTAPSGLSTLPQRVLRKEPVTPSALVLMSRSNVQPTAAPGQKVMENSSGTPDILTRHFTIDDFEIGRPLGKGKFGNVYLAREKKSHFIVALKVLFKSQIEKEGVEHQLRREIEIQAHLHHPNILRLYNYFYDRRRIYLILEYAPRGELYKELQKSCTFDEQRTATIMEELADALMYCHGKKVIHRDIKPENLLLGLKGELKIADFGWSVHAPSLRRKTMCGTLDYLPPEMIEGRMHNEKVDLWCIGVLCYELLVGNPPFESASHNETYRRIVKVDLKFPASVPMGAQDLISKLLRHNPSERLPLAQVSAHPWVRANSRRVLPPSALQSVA

Row | SMILES | Ki [1] | Ki [2] | Ki [3] | Ki [4]
1 | Cc1cc(Nc2cc(N3CCC3)nc(O[C@H]3CCN(C(=O)OC(C)(C)C)C3)n2)[nH]n1 | < 0.5 µM | < 0.5 µM | – | –
2 | Cc1cc(Nc2cc(N3CC(F)(C4CC4)C3)nc(O[C@H]3CCN(C(=O)c4cc(Cl)ccc4F)C3)n2)n[nH]1 [MK-6592] | – | – | < 0.1 µM | < 0.01 µM
3 | Cc1cc(Nc2cc(N3CC(F)(C4CC4)C3)nc(O[C@H]3CCN(C(=O)OC(C)(C)C)C3)n2)[nH]n1 | < 0.5 µM | < 0.5 µM | < 0.1 µM | < 0.01 µM

From ChEMBL document CHEMBL3880404, “Aminopyrimidines useful as kinase inhibitors” (2007)
